Data taken from patent publication US4094964A, “Clonidine assay” (Hoffmann-La Roche Inc., priority 1977, dated 1978).

What follows are compounds tested on antibody in the antiserum of rabbit immunized by the clonidine bovine serum albumin immunogen (assay: Radioimmunoassay specificity: competition with clonidine-14C for binding to the antiserum). Conditions: 100 ng to 500 pg of competitor, antiserum 1:50, about 18 hours at 4° C., pH 7.4.
Procedure: The antiserum of Example 3 as used for the radioimmunoassay was diluted with normal rabbit serum which was diluted with phosphate-buffered saline, pH 7.4, at 1:10-dilution. To determine the antibody titre of antiserum, 0.1 ml of various dilutions of the antiserum was incubated in an assay tube (10 × 75 mm) with 2 ng of clonidine ^14 C approximately 3,000 cpm at 4° C. for about 18 hours. The volume was adjusted to 0.5 ml with phosphate-buffered saline, pH 7.4, which is the optimal pH for the assay. The antibody bound clonidine was separated from free clonidine by the addition of saturated ammonium sulfate which was adjusted to pH 7.4 with ammonium hydroxide as described by Farr, J. Infect. Dis 103, 239 (1958). After 2 washings with 50% saturated ammonium sulfate, the precipitate was dissolved in 0.5 ml of water. The content of the tube was transferred to counting vial and the tube was then washed 4 times with 3 ml of Riafluor. The 12 ml washings were all collected in the vial. The radioactivity was then counted with a Beckman liquid scintillation counter. The dilution of the antiserum chosen for further studies was 1:50.
Appropriate volume of phosphate-buffered saline, pH 7.4 was added to all tubes containing 0.1 ml of the antiserum to make a final incubation volume of 0.5 ml. To the tubes were added 100 ul of clonidine-^14 C and various quantities ranging from 100 ng to 500 pg of clonidine, 2-(2,6-dichloro-4-hydroxyanilino)-2-imidazoline (4-hydroxyclonidine), 2-(2,6-dichloro-4-sulfonamidoanilino)-2-imidazoline (4-sulfonamidoclonidine),2-(2-chloro-3-methylanilino)-2-imidazoline, 2-(2-chloro-4-methylanilino)-2-imidazoline, 2-(2-chloro-6-methylanilino)-2-imidazoline, 2-anilino-2-imidazoline, 2-(2,6-dichloro-anilino)-2-methyl-2-imidazoline (2-methylclonidine), 2-(2,6-dichloroanilino)-1-methyl-2-imidazoline (1-methylclonidine), 1-acetamido-2-(2,6-dichloroanilino)-2-imidazoline (1-acetamidoclonidine), 2-(2,6-dichloroanilino)-2-pyrroline, 2-(2,6-dichloroanilino)-2-oxazoline, 2-(2,6-dichloroanilino)-2-benzimidazole, 2-(2,6-dichloroanilino)-1,3-dimethylquanidine, 2-(2,6-dichloroanilino)-1-methylguanidine, 2-(2,6-dichloroanilino)quanidine, aniline or 2-(2,6-dichlorobenzyl)-2-imidazoline. The tubes were then incubated for about 18 hours at 4° C. followed by precipitation with ammonium sulfate.
The specificity of the antibody in the antiserum of rabbit immunized by the clonidine bovine serum albumin immunogen was determined by incubating the antiserum with 2-(2,6-dichloro-4-hydroxyanilino)-2-imidazoline (4-hydroxyclonidine), 2-(2,6-dichloro-4-sulfonamidoanilino)-2-imidazoline (4-sulfonamidoclonidine), 2-(2-chloro-3-methylanilino)-2-imidazoline, 2-(2-chloro-4-methylanilino)-2-imidazoline, 2-(2-chloro-6-methylanilino)-2-imidazoline, 2-anilino-2-imidazoline, 2-(2,6-dichloroanilino)-2-methyl-2-imidazoline (2-methylclonidine), 2-(2,6-dichloroanilino)-1-methyl-2-imidazoline (1-methylclonidine), 1-acetamido-2-(2,6-dichloroanilino)-2-imidazoline (1-acetamidoclonidine), 2-(2,6-dichloroanilino)-2-pyrroline, 2-(2,6-dichloroanilino)-2-oxazoline, 2-(2,6-dichloroanilino)-2-benzimidazole, 2-(2,6-dichloroanilino)-1,3-dimethylguanidine, 2-(2,6-dichloroanilino)-1-methylguanidine, 2-(2,6-dichloroanilino)guanidine, aniline or 2-(2,6-dichlorobenzyl)-2-imidazoline in the presence of labelled clonidine.

Row | Compound | recognition by the antibody in the presence of labelled clonidine
1 | 2-(2,6-dichloroanilino)-1,3-dimethylguanidine | failed to recognize
2 | 2-(2,6-dichloroanilino)-2-methyl-2-imidazoline | failed to recognize
3 | 2-(2,6-dichloroanilino)guanidine [2-(2,6-dichloro-anilino)guanidine] | failed to recognize
4 | CC(=O)NN1CCN=C1Nc1c(Cl)cccc1Cl [1-acetamido-2-(2,6-dichloroanilino)-2-imidazoline] | recognized
5 | Oc1cc(Cl)c(NC2=NCCN2)c(Cl)c1 [2-(2,6-dichloro-4-hydroxyanilino)-2-imidazoline] | recognized
6 | NS(=O)(=O)c1cc(Cl)c(NC2=NCCN2)c(Cl)c1 [2-(2,6-dichloro-4-sulfonamidoanilino)-2-imidazoline] | recognized
7 | Clc1cccc(Cl)c1NC1=NCCO1 [2-(2,6-dichloro-anilino)-2-oxazoline, 2-(2,6-dichloroanilino)-2-oxazoline] | failed to recognize
8 | CN1CCN=C1Nc1c(Cl)cccc1Cl [2-(2,6-dichloroanilino)-1-methyl-2-imidazoline] | failed to recognize
9 | Clc1cccc(Cl)c1CC1=NCCN1 [2-(2,6-dichlorobenzyl)-2-imidazoline] | failed to recognize
10 | Cc1cccc(NC2=NCCN2)c1Cl [2-(2-chloro-3-methylanilino)-2-imidazoline] | recognized
11 | Cc1ccc(NC2=NCCN2)c(Cl)c1 [2-(2-chloro-4-methylanilino)-2-imidazoline] | recognized
12 | Cc1cccc(Cl)c1NC1=NCCN1 [2-(2-chloro-6-methylanilino)-2-imidazoline] | recognized
13 | c1ccc(NC2=NCCN2)cc1 [2-anilino-2-imidazoline] | failed to recognize
14 | Nc1ccccc1 [aniline] | failed to recognize

Same assay, conditions: antiserum 1:50, about 18 hours at 4° C., pH 7.4

Row | concentration required relative to that of clonidine (cross-reactivity) | Compound
15 | about 40 times that of clonidine | 2-(2,6-dichloroanilino)-1-methylguanidine
16 | about 40 times that of clonidine | Clc1cccc(Cl)c1NC1=CCCN1 [2-(2,6-dichloroanilino)-2-pyrroline]

Same assay, conditions: read-out: concentration producing a 50% inhibition of binding of clonidine-14C to the antibody; antiserum 1:50, about 18 hours at 4° C., pH 7.4, ammonium sulfate precipitation

Row | Compound | IC50 [nM]
17 | Clc1cccc(Cl)c1N=C1NCCN1 [Clonidine] | 25
